Measured values from ChEMBL document CHEMBL1201862, “PubChem BioAssay data set” (2004).
Activity calls are given as the source filed them.

Legend:
[1] = reduced cellular PGC1a acetyl-lysine signal – cell-based, cherry-picked samples, dose response (AID 720514); type: functional;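 further: potency may reflect raised or lowered acetylation signal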
[2] = molecular target: NAD-dependent protein deacylase sirtuin-5, mitochondrial (Homo sapiens, UniProt Q9NXA8); experiment: sirtuin-5 deacylation blockers, concentration series – biochemical, fluorescence imaging, cherry-pick, set 5, dose response (AID 720591);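 further: desuccinylation of succinyl peptide AMC substrate read as fluorescence after trypsin release; potency of inhibitors that lower fluorescence and may act on trypsin instead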
Chain of NAD-dependent protein deacylase sirtuin-5, mitochondrial (Q9NXA8 whole entry): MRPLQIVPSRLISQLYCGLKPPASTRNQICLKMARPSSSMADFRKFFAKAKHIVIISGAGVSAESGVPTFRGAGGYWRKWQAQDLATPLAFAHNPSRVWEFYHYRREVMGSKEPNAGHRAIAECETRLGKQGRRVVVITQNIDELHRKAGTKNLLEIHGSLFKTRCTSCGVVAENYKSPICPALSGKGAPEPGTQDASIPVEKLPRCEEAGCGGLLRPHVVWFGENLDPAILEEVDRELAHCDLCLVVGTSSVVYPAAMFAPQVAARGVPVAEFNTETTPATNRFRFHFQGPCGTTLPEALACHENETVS

[3] = test system: HeLa; experiment: viability loss in HeLa cells – cell-based, ATP luminescence, cherry-pick samples, cytotoxicity control, dose response (AID 687004); type: functional; settings: Homo sapiens
[4] = test system: H9c2; experiment: cells; type: functional, cell-based; settings: Rattus norvegicus, H9c2, Myocardium;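 further: confirmatory concentration-response retest of ultra-high-throughput screening hits for modulation of myocardial damage; cell death induced by hydrogen peroxide oxidative stress; compound pretreatment for 60 min then peroxide exposure for 2 h; potency is for protecting the cells against peroxide damage rather than for killing them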
[5] = molecular target: Paired box protein Pax-8 (Homo sapiens, UniProt Q06710); experiment: PAX8 transcriptional activity inhibition in RMG-I – RMG-I cells, luciferase, cherry-pick, dose response (AID 687027); type: functional, cell-based;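 further: luciferase reporter driven by Pax8 target thyroperoxidase promoter measured by SteadyGlo luminescence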
Chain of Paired box protein Pax-8 (Q06710 whole entry): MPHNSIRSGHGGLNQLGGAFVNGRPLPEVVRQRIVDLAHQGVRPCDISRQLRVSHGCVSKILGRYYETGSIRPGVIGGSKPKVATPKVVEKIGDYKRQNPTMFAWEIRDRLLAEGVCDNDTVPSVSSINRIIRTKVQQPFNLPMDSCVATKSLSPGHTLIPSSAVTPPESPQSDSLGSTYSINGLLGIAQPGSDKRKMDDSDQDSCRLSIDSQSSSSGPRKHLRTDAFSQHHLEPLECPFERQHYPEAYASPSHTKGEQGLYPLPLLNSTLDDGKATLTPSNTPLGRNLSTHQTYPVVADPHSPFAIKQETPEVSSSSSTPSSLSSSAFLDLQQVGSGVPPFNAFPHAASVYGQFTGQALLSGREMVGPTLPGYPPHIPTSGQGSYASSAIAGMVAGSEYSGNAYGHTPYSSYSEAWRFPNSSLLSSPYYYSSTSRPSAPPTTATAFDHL

[6] = blockers of bursicon-stimulated LGR2 cAMP reporter – cell-based, HEK293, CRE-luciferase reporter, cherry pick, set 2, dose response (AID 743343); type: functional;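 further: transfected cells were stimulated with diluted bursicon conditioned medium after compound addition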
[7] = blockade of melanocortin 4 receptor signaling – cell-based, plate reader, cherry pick, counter-screen for LGR2 antagonist project, dose response (AID 743444); type: functional;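 further: transfected HEK 293 cells stimulated with alpha-MSH peptide; potency of inhibitors of the alpha-MSH evoked signal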
[8] = viability loss in HEK293 cells – cell-based, plate reader, cherry-picked samples, cytotoxicity control, dose response (AID 743446); type: functional
[9] = general cell-killing toxicity readout – plate reader, dry powder samples, cytotoxicity control for PAX8 inhibitor project, dose response (AID 743021); type: functional, cell-based
[10] = toxicity toward HepG2 liver cells – cell-based, plate reader, cherry-pick, antagonist series, cytotoxicity control, dose response (AID 743416); type: functional
[11] = A549 cell cytotoxicity, dose response, cytotoxicity control, plate reader, cherry-pick, antagonist series (AID 743412); type: functional, cell-based
[12] = molecular target: fMet-Leu-Phe receptor (Homo sapiens, UniProt P21462); experiment: formyl peptide receptor binders – dose response (AID 519); type: functional
Chain of fMet-Leu-Phe receptor (P21462 whole entry): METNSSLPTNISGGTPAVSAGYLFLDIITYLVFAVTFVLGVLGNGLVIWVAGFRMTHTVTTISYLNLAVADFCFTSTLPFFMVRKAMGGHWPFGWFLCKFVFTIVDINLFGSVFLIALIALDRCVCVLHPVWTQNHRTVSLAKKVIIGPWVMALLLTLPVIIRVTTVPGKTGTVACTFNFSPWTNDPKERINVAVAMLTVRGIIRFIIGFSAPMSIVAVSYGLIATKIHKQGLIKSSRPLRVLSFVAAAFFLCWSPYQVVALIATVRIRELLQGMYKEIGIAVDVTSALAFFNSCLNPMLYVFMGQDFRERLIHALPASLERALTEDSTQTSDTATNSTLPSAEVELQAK

[13] = molecular target: T1, Protein RecA (Mycobacterium tuberculosis, UniProt P9WHJ3); experiment: Fluorescence Cell-Free Homogeneous Dose Retest to Identify Inhibitors of RecA-Intein Splicing Activity. [Related pubchem assays (depositor defined):AID2097, AID2223, AID489010, AID492950]; type: functional
T1 sequence (P9WHJ3 whole entry): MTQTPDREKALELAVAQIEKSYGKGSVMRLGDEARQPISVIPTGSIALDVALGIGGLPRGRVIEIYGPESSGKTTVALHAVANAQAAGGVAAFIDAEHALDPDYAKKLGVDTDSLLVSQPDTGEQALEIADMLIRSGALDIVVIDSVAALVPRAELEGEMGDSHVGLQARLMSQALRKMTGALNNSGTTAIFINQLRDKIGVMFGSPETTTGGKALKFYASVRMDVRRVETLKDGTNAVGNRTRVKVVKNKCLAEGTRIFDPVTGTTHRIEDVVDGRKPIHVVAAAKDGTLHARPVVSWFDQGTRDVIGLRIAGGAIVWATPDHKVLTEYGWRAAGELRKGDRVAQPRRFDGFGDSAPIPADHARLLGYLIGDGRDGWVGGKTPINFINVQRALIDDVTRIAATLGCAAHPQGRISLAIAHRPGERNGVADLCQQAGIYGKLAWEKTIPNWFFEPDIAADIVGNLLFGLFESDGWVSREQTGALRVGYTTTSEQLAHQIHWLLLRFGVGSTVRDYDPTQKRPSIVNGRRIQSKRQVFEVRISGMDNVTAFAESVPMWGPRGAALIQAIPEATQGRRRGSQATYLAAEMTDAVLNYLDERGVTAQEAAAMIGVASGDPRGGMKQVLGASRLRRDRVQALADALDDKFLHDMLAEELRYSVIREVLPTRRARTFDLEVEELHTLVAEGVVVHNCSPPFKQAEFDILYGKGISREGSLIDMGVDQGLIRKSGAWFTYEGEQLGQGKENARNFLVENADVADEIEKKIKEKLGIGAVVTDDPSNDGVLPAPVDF

[14] = molecular target: T2, Replicative DNA helicase DnaB (Mycobacterium tuberculosis, UniProt P9WMR3); experiment: DnaB intein splicing inhibitors, dose response, biochemical, cell-free fluorescence (AID 449749); type: functional
T2 sequence (P9WMR3 whole entry): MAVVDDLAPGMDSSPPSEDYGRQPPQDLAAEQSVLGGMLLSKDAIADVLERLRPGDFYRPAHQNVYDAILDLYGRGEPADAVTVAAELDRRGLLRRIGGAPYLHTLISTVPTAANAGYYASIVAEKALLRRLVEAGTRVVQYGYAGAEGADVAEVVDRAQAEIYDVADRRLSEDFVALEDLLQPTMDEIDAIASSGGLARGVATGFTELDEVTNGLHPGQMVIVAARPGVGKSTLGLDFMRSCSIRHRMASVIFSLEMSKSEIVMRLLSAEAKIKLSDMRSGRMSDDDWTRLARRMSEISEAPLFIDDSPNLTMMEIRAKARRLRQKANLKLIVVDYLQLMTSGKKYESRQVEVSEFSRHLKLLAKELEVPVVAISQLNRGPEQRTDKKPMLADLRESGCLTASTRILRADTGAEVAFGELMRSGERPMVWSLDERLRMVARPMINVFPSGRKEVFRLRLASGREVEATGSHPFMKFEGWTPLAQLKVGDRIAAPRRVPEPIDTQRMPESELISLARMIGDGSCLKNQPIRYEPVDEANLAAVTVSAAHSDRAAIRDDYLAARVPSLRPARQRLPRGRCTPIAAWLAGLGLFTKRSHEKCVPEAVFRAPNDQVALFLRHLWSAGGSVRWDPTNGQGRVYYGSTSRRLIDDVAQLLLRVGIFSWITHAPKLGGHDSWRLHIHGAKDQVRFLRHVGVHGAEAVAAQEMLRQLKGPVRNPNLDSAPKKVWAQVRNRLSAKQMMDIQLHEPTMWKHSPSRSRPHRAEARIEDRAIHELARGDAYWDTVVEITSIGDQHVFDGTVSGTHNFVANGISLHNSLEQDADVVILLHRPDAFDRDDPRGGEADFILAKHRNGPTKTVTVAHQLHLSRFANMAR

In the case of O=C(Nc1cc(S(=O)(=O)N2CCOCC2)ccc1Cl)c1cc([N+](=O)[O-])ccc1Cl, the AC50 [1] is reported as 13 µM (active).

With O=C(Cc1cccc(NC(=O)C2CCCN(C(=O)C3CCCC3)C2)c1)Nc1cccc(C(=O)N2CCOCC2)c1 (stereo not given) the AC50 [2] was > 30 µM (inactive).

For CS(=O)(=O)c1ccc(-c2cnc3c(NC=O)cc(-c4ccsc4)cn23)cc1, the AC50 [3] was > 52 µM (inactive) and the IC50 [4] was 4.99 µM (active).

In the case of Oc1nc2ccccc2n1C1CCN(C(c2cc3ccccc3o2)c2nnnn2-c2ccc3c(c2)OCCO3)CC1 (stereo not given), the AC50 [5] is reported as 5.8 µM (active), the AC50 [6] is reported as 11.6 µM (active) and the AC50 [7] is reported as 8.87 µM (active). For the same compound, the AC50 [8] was 15.5 µM (active), the AC50 [9] was 24.3 µM (active) and the AC50 [10] was 39.1 µM (active). For the same compound, the AC50 [11] was 12.6 µM (active).

In the case of COc1cc(-n2nc(C)c3c2OC(N)=C(C#N)C3c2ccccc2)c(Cl)c(Br)c1O (stereo not given), the Ki [12] is reported as 32.5 µM (inactive), the EC50 [13] is reported as 3.47 µM (active) and the AC50 [14] is reported as 15.6 µM (active).

With CC1(C)S[C@@H]2[C@H](NC(=O)Cc3ccccc3)C(=O)N2[C@H]1C(=O)O [PENICILLIN G POTASSIUM] the Ki [12] was 7.8 µM (active).
